Experimental data from PubChem BioAssay (NCI).
Where “and” joins values, the source holds several entries; their conditions need not be identical. Identical values can stand only once.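 Values below derive from 48-hour exposures of cells grown in 96-well plates, with endpoints linearly interpolated between the two concentrations bracketing the appropriate inhibition level. Here, GI50 denotes the concentration required for 50% inhibition of growth. At the TGI there is no net growth.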

Tests used:
Experiment in all cases: DTP human tumour cell line panel, 48 h
HCC-2998 colon = tested on: HCC-2998 colon
K-562 leukemia = tested on: K-562 leukemia
NCI-H226 lung = tested on: NCI-H226 lung
NCI-H23 lung = tested on: NCI-H23 lung
OVCAR-5 ovarian = tested on: OVCAR-5 ovarian
OVCAR-8 ovarian = tested on: OVCAR-8 ovarian
RXF 393 renal = tested on: RXF 393 renal
SK-OV-3 ovarian = tested on: SK-OV-3 ovarian
SNB-19 CNS = tested on: SNB-19 CNS
UACC-62 melanoma = tested on: UACC-62 melanoma

Row | SMILES | GI50 (HCC-2998 colon) | TGI (HCC-2998 colon) | GI50 (K-562 leukemia) | TGI (K-562 leukemia) | GI50 (NCI-H226 lung) | TGI (NCI-H226 lung) | GI50 (NCI-H23 lung) | TGI (NCI-H23 lung) | GI50 (OVCAR-5 ovarian) | TGI (OVCAR-5 ovarian) | GI50 (OVCAR-8 ovarian) | TGI (OVCAR-8 ovarian) | GI50 (RXF 393 renal) | TGI (RXF 393 renal) | GI50 (SK-OV-3 ovarian) | TGI (SK-OV-3 ovarian) | GI50 (SNB-19 CNS) | TGI (SNB-19 CNS) | GI50 (UACC-62 melanoma) | TGI (UACC-62 melanoma)
1 | Cc1ccc(C=C2C(Cl)=C(Cl)C(Cl)=C2Cl)cc1 | 1470 nM | 2.93 µM | 202 nM | 0.522 µM | 1.49 µM | 3.22 µM | 533 nM | 2.5 µM | 978 nM | 2.49 µM | 418 nM | 9.45 µM | 0.308 µM | 0.906 µM | 2.03 µM | 4.62 µM | 1.33 µM | 2.68 µM | 0.784 µM | 2.74 µM
2 | CCn1c2ccccc2c(=O)c2c(OC)ccc(OC)c21 |  |  |  | > 100 µM |  | > 100 µM |  | > 100 µM |  | > 100 µM |  | > 100 µM |  | 80.1 µM |  | > 100 µM |  | > 100 µM |  | > 100 µM
3 | O=[N+]([O-])c1ccc(C(Cl)C(Cl)c2ccc(C(Cl)C(Cl)c3ccc([N+](=O)[O-])cc3[N+](=O)[O-])cc2)c([N+](=O)[O-])c1 (centres undefined) | 473 nM | 6.87 µM and 1.59 µM |  | 0.438 µM | 0.23 µM |  | 216 nM | 4.69 µM and 0.582 µM |  | 4.83 µM | 282 nM | 2.13 µM and 0.918 µM | 0.31 µM | 2.33 µM and 1.34 µM | 6.36 µM | > 62 µM and 51.1 µM |  | 18.1 µM | 0.247 µM | 2.37 µM and 0.623 µM
4 | CCCCNS(=O)(=O)c1n[nH]c(=O)[nH]c1=O |  |  |  | > 100 µM |  | > 100 µM |  | > 100 µM |  | > 100 µM |  | > 100 µM |  | > 100 µM |  | > 100 µM |  | > 100 µM |  | > 100 µM
5 | NC(=S)N/N=C1\c2ccccc2-c2c(F)c(F)c(F)c(F)c21 | 3110 nM | 9.37 µM | 2090 nM | 6.61 µM | 13.1 µM | 28.9 µM | 9790 nM | 25 µM | 13600 nM | 30.5 µM | 1840 nM | 3.68 µM | 2.07 µM | 3.85 µM | 14.1 µM | 36.5 µM | 11.4 µM | 29.2 µM | 8.97 µM | 24.6 µM
6 | Cc1ccc(/C=C(\NC(=O)c2ccccc2)c2nc3ccccc3[nH]2)cc1 |  | > 100 µM |  |  |  |  |  | > 100 µM |  | > 100 µM |  | > 100 µM |  | > 100 µM |  |  |  | > 100 µM |  | > 100 µM
7 | C[C@@H](NS(=O)(=O)c1ccc(NC(=O)c2ccccc2)cc1)C(=O)O |  | > 100 µM |  | > 100 µM |  |  |  | > 100 µM |  | > 100 µM |  | > 100 µM |  | > 100 µM |  | > 100 µM |  | > 100 µM |  | > 100 µM
8 | COC(=O)c1ncc2c(=O)[nH]c3ccccc3c2c1C(=O)OC |  | > 100 µM |  | > 100 µM |  | > 100 µM |  | > 100 µM |  | > 100 µM |  | > 100 µM |  | > 100 µM |  |  |  | > 100 µM |  | > 100 µM
9 | C=C1C(=O)O[C@H]2[C@H](OC(C)=O)[C@@H](C)CCCC3(C)OC3CCC3(CO3)[C@H](O)C[C@@H]12 (some centres undefined) | 1990 nM | 7.21 µM |  |  | 10.9 µM | 31.7 µM |  |  | 2380 nM | 12 µM | 17500 nM | > 100 µM | 12.4 µM | > 100 µM | 21.2 µM | 62 µM | 25.7 µM | 83.1 µM | 11.8 µM | 24.1 µM
10 | O=C(O)c1cc(=O)cc(C(=O)O)o1 | > 100000 nM | > 100 µM | > 100000 nM | > 100 µM | > 100 µM | > 100 µM | > 100000 nM | > 100 µM | > 100000 nM | > 100 µM |  |  | > 100 µM | > 100 µM | > 100 µM | > 100 µM | > 100 µM | > 100 µM | > 100 µM | > 100 µM
11 | N#CC(C#N)=C1CCOc2ccc(F)cc21 |  |  | 50400 nM | > 100 µM | 18 µM | 53.7 µM | 14800 nM | 28.7 µM | 16400 nM | 39.9 µM | 19000 nM | 43.7 µM | 17.4 µM | 33.5 µM | 16.3 µM | 30.7 µM | 27.3 µM | 96.1 µM | 11.3 µM | 28.9 µM
12 | COc1cc(CNCCN2C(=O)c3ccc4c5c(ccc(c35)C2=O)C(=O)N(CCNCc2cc(OC)c(OC)c(OC)c2)C4=O)cc(OC)c1OC |  |  | 147 nM | 0.413 µM |  |  | 794 nM | 1.78 µM |  |  |  |  | 0.251 µM | 0.902 µM | 0.575 µM | 1.19 µM | 0.827 µM | 1.84 µM | 0.552 µM | 1.36 µM
13 | O=C(O)c1ccc(C(O)(c2ccccc2)c2ccccc2)cc1 |  |  |  | > 100 µM |  |  |  | > 100 µM |  | > 100 µM |  | > 100 µM |  |  |  | > 100 µM |  | > 100 µM |  | > 100 µM
14 | COc1cccc(-c2cc(=O)c3cc(N4CCOCC4)ccc3[nH]2)c1 | 23.6 nM | 0.433 µM and 0.0581 µM | 26.7 nM | 0.179 µM | 0.0806 µM |  | 550 nM |  | 268 nM | > 100 µM | 30.3 nM | 0.337 µM and 0.152 µM |  |  | 0.0268 µM and 0.044 µM | 36.8 µM |  |  | 0.041 µM | 
15 | Cc1cnc2oc3ccc(O)cc3c2c1-c1ccccc1 |  |  | > 100000 nM | > 100 µM | 9.35 µM | 44.2 µM | 21600 nM | > 100 µM | > 100000 nM | > 100 µM | 99000 nM | > 100 µM | 18.5 µM | 67.3 µM | 25 µM | 86.9 µM | 34.3 µM | > 100 µM | 6.02 µM | 50.8 µM
16 | NC1CCCCC1N.O=C1C=C/C(=C(/c2ccc(O)c(Br)c2)c2ccccc2S(=O)(=O)[O-])C=C1Br.O=C1C=C/C(=C(/c2ccc(O)c(Br)c2)c2ccccc2S(=O)(=O)[O-])C=C1Br.[Pt+4] | 4660 nM | > 100 µM | 8790 nM | > 100 µM |  |  | 2880 nM | > 100 µM | 2000 nM | 87.7 µM | 1270 nM | > 100 µM | 19.8 µM | 89.7 µM | 54.2 µM | > 100 µM | 7.14 µM | > 100 µM | 9.45 µM | > 100 µM
